Laboratory results published in ChEMBL document CHEMBL5303573, “Mapping human microbiome drug metabolism by gut bacteria and their genes” (Nature, 2019).

How the values were obtained:
[1] = The drug is tested on Collinsella aerofaciens strain: ATCC25986 for biotransformation. The drug concentrations were measured before and after a 12-h incubation by liquid-chromatography-coupled mass spectrometry (LC–MS); conditions: 2 µM
[2] = The drug is tested on Collinsella intestinalis strain: DSM13280 for biotransformation. The drug concentrations were measured before and after a 12-h incubation by liquid-chromatography-coupled mass spectrometry (LC–MS); conditions: 2 µM
[3] = The drug is tested on Bacteroides finegoldii strain: DSM17565 for biotransformation. The drug concentrations were measured before and after a 12-h incubation by liquid-chromatography-coupled mass spectrometry (LC–MS); conditions: 2 µM
[4] = The drug is tested on Parabacteroides merdae strain: ATCC43184 for biotransformation. The drug concentrations were measured before and after a 12-h incubation by liquid-chromatography-coupled mass spectrometry (LC–MS); conditions: 2 µM
[5] = The drug is tested on Anaerotruncus colihominis strain: DSM17241 for biotransformation. The drug concentrations were measured before and after a 12-h incubation by liquid-chromatography-coupled mass spectrometry (LC–MS); conditions: 2 µM
[6] = The drug is tested on Blautia hansenii strain: DSM20583 for biotransformation. The drug concentrations were measured before and after a 12-h incubation by liquid-chromatography-coupled mass spectrometry (LC–MS); conditions: 2 µM
[7] = The drug is tested on Clostridium sporogenes strain: ATCC15579 for biotransformation. The drug concentrations were measured before and after a 12-h incubation by liquid-chromatography-coupled mass spectrometry (LC–MS); conditions: 2 µM
[8] = The drug is tested on Clostridium symbiosum strain: ATCC14940 for biotransformation. The drug concentrations were measured before and after a 12-h incubation by liquid-chromatography-coupled mass spectrometry (LC–MS); conditions: 2 µM
[9] = The drug is tested on Eubacterium rectale strain: ATCC33656 for biotransformation. The drug concentrations were measured before and after a 12-h incubation by liquid-chromatography-coupled mass spectrometry (LC–MS); conditions: agathobacter rectalis, 2 µM
[10] = The drug is tested on Edwardsiella tarda strain: ATCC23685 for biotransformation. The drug concentrations were measured before and after a 12-h incubation by liquid-chromatography-coupled mass spectrometry (LC–MS); conditions: 2 µM
[11] = The drug is tested on Providencia stuartii strain: ATCC25827 for biotransformation. The drug concentrations were measured before and after a 12-h incubation by liquid-chromatography-coupled mass spectrometry (LC–MS); conditions: 2 µM
[12] = bacteroides eggerthii, 12 h, 2 µM
Description: The drug is tested on Bacteroides eggerthii strain: DSM20697 for biotransformation. The drug concentrations were measured before and after a 12-h incubation by liquid-chromatography-coupled mass spectrometry (LC–MS)

[13] = bacteroides fragilis, 12 h, 2 µM
Description: The drug is tested on Bacteroides fragilis strain: DS-208 for biotransformation. The drug concentrations were measured before and after a 12-h incubation by liquid-chromatography-coupled mass spectrometry (LC–MS)

[14] = enterocloster bolteae, 12 h, 2 µM
Description: The drug is tested on Clostridium bolteae strain: ATCCBAA-613 for biotransformation. The drug concentrations were measured before and after a 12-h incubation by liquid-chromatography-coupled mass spectrometry (LC–MS)

[15] = limosilactobacillus reuteri cf48-3a, 12 h, 2 µM
Description: The drug is tested on Lactobacillus reuteri CF48-3A strain: BEI HM-102 for biotransformation. The drug concentrations were measured before and after a 12-h incubation by liquid-chromatography-coupled mass spectrometry (LC–MS)

[16] = roseburia intestinalis, 12 h, 2 µM
Description: The drug is tested on Roseburia intestinalis strain: L1-82 for biotransformation. The drug concentrations were measured before and after a 12-h incubation by liquid-chromatography-coupled mass spectrometry (LC–MS)

[17] = The drug is tested on Bacteroides pectinophilus strain: ATCC43243 for biotransformation. The drug concentrations were measured before and after a 12-h incubation by liquid-chromatography-coupled mass spectrometry (LC–MS); conditions: 2 µM
[18] = parabacteroides johnsonii, 12 h, 2 µM
Description: The drug is tested on Parabacteroides johnsonii strain: DSM18315 for biotransformation. The drug concentrations were measured before and after a 12-h incubation by liquid-chromatography-coupled mass spectrometry (LC–MS)

[19] = The drug is tested on Escherichia coli strain: BW25113 for biotransformation. The drug concentrations were measured before and after a 12-h incubation by liquid-chromatography-coupled mass spectrometry (LC–MS); conditions: 2 µM

| SMILES | Bacterial Biotransformation [1] | Bacterial Biotransformation [2] | Bacterial Biotransformation [3] | Bacterial Biotransformation [4] | Bacterial Biotransformation [5] | Bacterial Biotransformation [6] | Bacterial Biotransformation [7] | Bacterial Biotransformation [8] | Bacterial Biotransformation [9] | Bacterial Biotransformation [10] | Bacterial Biotransformation [11] | Bacterial Biotransformation [12] | Bacterial Biotransformation [13] | Bacterial Biotransformation [14] | Bacterial Biotransformation [15] | Bacterial Biotransformation [16] | Bacterial Biotransformation [17] | Bacterial Biotransformation [18] | Bacterial Biotransformation [19] |
| --- | --- | --- | --- | --- | --- | --- | --- | --- | --- | --- | --- | --- | --- | --- | --- | --- | --- | --- | --- |
| C=CCc1ccccc1OCC(O)CNC(C)C (configuration not stated) [ALPRENOLOL] | Compound NOT metabolized | Compound NOT metabolized | Compound NOT metabolized | Compound NOT metabolized | Compound NOT metabolized | Compound NOT metabolized | Compound NOT metabolized | Compound NOT metabolized | Compound NOT metabolized | Compound NOT metabolized | Compound NOT metabolized | Compound NOT metabolized | Compound NOT metabolized | Compound NOT metabolized | Compound NOT metabolized | Compound NOT metabolized |  |  |  |
| O=C(O)COCCN1CCN(C(c2ccccc2)c2ccc(Cl)cc2)CC1 (configuration not stated) [CETIRIZINE] | Compound NOT metabolized |  | Compound metabolized | Compound NOT metabolized | Compound NOT metabolized | Compound metabolized | Compound NOT metabolized | Compound NOT metabolized | Compound NOT metabolized | Compound NOT metabolized |  | Compound metabolized | Compound metabolized | Compound NOT metabolized | Compound NOT metabolized | Compound NOT metabolized | Compound metabolized | Compound NOT metabolized |  |
| COc1cc2c(c(OC)c1OC)-c1ccc(OC)c(=O)cc1[C@@H](NC(C)=O)CC2 [COLCHICINE] | Compound NOT metabolized | Compound NOT metabolized |  | Compound NOT metabolized | Compound NOT metabolized | Compound metabolized | Compound metabolized | Compound metabolized | Compound NOT metabolized | Compound NOT metabolized | Compound NOT metabolized | Compound metabolized | Compound metabolized | Compound NOT metabolized | Compound NOT metabolized | Compound metabolized |  | Compound metabolized |  |
| CN(C)CCOC(c1ccc(Cl)cc1)c1ccccn1.O=C(O)/C=C\C(=O)O (configuration not stated) [CARBINOXAMINE MALEATE] | Compound NOT metabolized | Compound NOT metabolized | Compound NOT metabolized | Compound NOT metabolized | Compound NOT metabolized | Compound NOT metabolized | Compound NOT metabolized | Compound NOT metabolized |  | Compound NOT metabolized | Compound NOT metabolized | Compound NOT metabolized | Compound NOT metabolized | Compound NOT metabolized |  | Compound NOT metabolized | Compound NOT metabolized | Compound NOT metabolized |  |
| CC(C)(C#N)c1cc(Cn2cncn2)cc(C(C)(C)C#N)c1 [ANASTROZOLE] | Compound NOT metabolized |  | Compound NOT metabolized | Compound metabolized | Compound NOT metabolized | Compound metabolized | Compound metabolized | Compound NOT metabolized | Compound NOT metabolized | Compound NOT metabolized | Compound NOT metabolized | Compound metabolized | Compound NOT metabolized | Compound NOT metabolized | Compound NOT metabolized | Compound NOT metabolized | Compound NOT metabolized | Compound metabolized |  |
| NC12CC3CC(CC(C3)C1)C2 [AMANTADINE] | Compound NOT metabolized | Compound NOT metabolized | Compound NOT metabolized | Compound NOT metabolized | Compound NOT metabolized | Compound NOT metabolized |  | Compound NOT metabolized | Compound NOT metabolized | Compound NOT metabolized | Compound NOT metabolized | Compound NOT metabolized | Compound metabolized | Compound NOT metabolized | Compound NOT metabolized | Compound NOT metabolized | Compound NOT metabolized | Compound NOT metabolized |  |
| O=C1CN2Cc3c(ccc(Cl)c3Cl)N=C2N1 [ANAGRELIDE] | Compound NOT metabolized | Compound NOT metabolized | Compound NOT metabolized |  | Compound NOT metabolized | Compound metabolized | Compound NOT metabolized | Compound NOT metabolized |  | Compound NOT metabolized | Compound NOT metabolized | Compound NOT metabolized | Compound NOT metabolized | Compound NOT metabolized |  |  | Compound NOT metabolized | Compound metabolized |  |
| Clc1ccc(Cn2c(CN3CCCC3)nc3ccccc32)cc1 [CLEMIZOLE] | Compound NOT metabolized | Compound NOT metabolized | Compound NOT metabolized | Compound NOT metabolized |  | Compound metabolized | Compound NOT metabolized | Compound NOT metabolized | Compound NOT metabolized | Compound NOT metabolized | Compound NOT metabolized | Compound NOT metabolized | Compound NOT metabolized | Compound NOT metabolized | Compound NOT metabolized | Compound NOT metabolized | Compound NOT metabolized | Compound NOT metabolized |  |
| Br.CN(C)CCCC1(c2ccc(F)cc2)OCc2cc(C#N)ccc21 (configuration not stated) [CITALOPRAM HYDROBROMIDE] | Compound NOT metabolized | Compound NOT metabolized | Compound NOT metabolized | Compound NOT metabolized | Compound NOT metabolized |  | Compound NOT metabolized | Compound NOT metabolized | Compound NOT metabolized | Compound NOT metabolized | Compound NOT metabolized | Compound NOT metabolized | Compound NOT metabolized | Compound NOT metabolized | Compound NOT metabolized | Compound NOT metabolized | Compound NOT metabolized | Compound NOT metabolized | Compound NOT metabolized |
